In publication PMC9143506, “Investigating the Mechanisms behind the Positive Food Effect of Abiraterone Acetate: In Vitro and Rat In Situ Studies” (Pharmaceutics, 2022):
≈ marks a conversion by molar mass, not a printed value. Read-outs that look alike come from different tables or passages of the source.

How the values were obtained:
[1] = set-up: method as in PMID 25592324; conditions: FaSSIF, pH 6.5; cited from earlier work
[2] = PAMPA
Procedure: (§2) To investigate the impact of TG and lipid digestion products (FFA, MG) on the passive permeation of abiraterone, transport experiments were performed in the AMI-system according to Berben et al. [13]. In short, a regenerated cellulose membrane (molecular weight cut-off 2 kDa) was mounted between two plastic rings resulting in a surface area of 4.91 cm^2. Membrane integrity was checked by water leakage. The AMI-system was placed in a six-well plate on a shaking incubator at 37 °C and 300 rpm. A 1:3 ratio was maintained between donor and acceptor volumes by applying 2 mL of TPGS-solution to the acceptor compartment and 665 µL of the donor solution of abiraterone in the media prepared as described above. The initial concentration of abiraterone depended on the medium to ensure donor concentrations below the solubility and sufficient permeation to quantify the permeated amount in the acceptor compartment: 10 μM in FaSSIF, 30 μM in FeSSIF*, FeSSIF*-Th and FeSSIF*-E, and 150 μM in FeSSIF*-FM, FeSSIF*-FMT and FeSSIF*-FMTh. Samples (100 µL) were taken from the acceptor compartment at 15, 30, 45, 60 and 120 min and diluted 1:1 in MeOH:H2O (50:50 v/v) containing IS. Subsequently, the withdrawn volumes were replaced by fresh TPGS-solution.
(§3) The apparent permeability coefficient (Papp) was calculated from the cumulative amount of abiraterone appearing in the acceptor compartment according to Equation (1):(1) Papp=dQ/dt×1/A×Cdonor where dQ/dt is the amount of abiraterone appearing in the acceptor compartment over time, A represents the effective surface area available for transport, and Cdonor is the initial concentration in the donor compartment. Data are represented as mean ± standard deviation (SD).

[3] = system: porcine pancreatin; test: Enzymatic conversion of abiraterone acetate to abiraterone by porcine pancreatin; format: in vitro ADME; conditions: porcine pancreatin 0.83 mg/mL (same with esterases), 150 μM
Procedure: (§1) The conversion of abiraterone acetate to abiraterone was studied in the abovementioned media using either 80 IU/mL esterase from porcine liver or 0.83 mg/mL porcine pancreatin. A total of 150 µM abiraterone acetate (DMSO stock solution) was added to 2 mL of the media in a 12-well plate and placed in a prewarmed shaking incubator (37 °C, 300 rpm; Thermostar, BMG Labtech, Offenburg, Germany). Samples were obtained in triplicate at predetermined time points and centrifuged immediately (20.817 g, 5 min). When lipids were present, drug concentrations were determined in both total (lipid + micellar) and micellar layer as described above.

[4] = physchem; conditions: 37 °C, Apparent solubility, micellar
Procedure: (§4) The apparent solubility (i.e., including both molecules freely dissolved in the aqueous phase and molecules solubilised in colloidal structures and lipid droplets [12]) of abiraterone and abiraterone acetate was determined in the different simulated fed state media (i.e., FeSSIF*, FeSSIF*-FM, FeSSIF*-FMT, FeSSIF*-FMTh, FeSSIF*-Th and FeSSIF*-E) using the shake flask method. Approximately 0.3 mg of compound was added to microcentrifuge tubes containing 0.3 mL of the abovementioned media and placed in a prewarmed shaking incubator (37 °C, 175 rpm; KS 4000 I control incubator from Ika (Staufen, Germany)) for 24 h. To the media containing lipid digestion products, 0.9 mg of compound was added instead of 0.3 mg. All solubility experiments were performed in triplicate. Afterwards, samples were centrifuged to separate the solid phase from the dissolved part (20.817 g, 30 min at 37 °C). […] To determine the solubility in the micellar layer, the top lipid layer was aspirated upon which the supernatant was diluted in MeOH:H2O (50:50 v/v) containing IS (abiraterone-d4 and abiraterone acetate-d4, final concentration 50 nM). To determine the solubility in the total sample, the entire supernatant was transferred into a new microcentrifuge tube and vortexed upon which the supernatant was diluted in MeOH:H2O (50:50 v/v) containing IS to fit the linear range.

[5] = 24 h, pH 6.5
Procedure: as §4

[6] = cited from earlier work
[7] = 1000 mg a day; cited from earlier work
[8] = system: esterase from porcine liver; test: Enzymatic conversion of abiraterone acetate to abiraterone by porcine esterases; format: in vitro ADME; conditions: 80 IU/mL porcine esterases
Procedure: as §1

[9] = Apparent solubility, shake flask method in simulated intestinal media; conditions: 37 °C, pH 6.5, 37 °C, mean ± SD (n = 3)
Procedure: as §4

[10] = system: small intestine (ileum); test: Rat in situ intestinal perfusion with mesenteric blood sampling
[11] = Passive permeation in the artificial membrane insert system (AMI-system)
Procedure: as §2, §3

[12] = FeSSIF*-FM, FeSSIF*-FMT and FeSSIF*-FMTh
[13] = abiraterone acetate suspension 0.5 mg/mL, 80 IU/mL esterases

## CC(=O)O[C@H]1CC[C@@]2(C)C(=CC[C@@H]3[C@@H]2CC[C@]2(C)C(c4cccnc4)=CC[C@@H]32)C1 [abiraterone acetate]
[1]
  Apparent solubility, micellar: 64.6 (±5.2) ^1 µM
[2]
  Permeation across the cellulose membrane: too low
[3]
  Degradation in FeSSIF* compared to FeSSIF*-E: degraded faster
[4]; pH 6.5, fessif, thermodynamic from solid
  solubility at 24 h: 148 µM
[4]; pH 6.5, thermodynamic from solid
  solubility at 24 h: 2110 µM
[5]
  Increase of concentration in the total sample in FeSSIF*-FMTh compared to FeSSIF*-FMT: 2 fold
  Increase of solubility in FeSSIF*-FM compared to FeSSIF*: 14 fold
[6]
  Log P: 5.12
[7]
  Excretion of the oral dose: largely excreted in the faeces
[8]; FaSSIF and FeSSIF*, 150 µM, 37 °C
  Time to almost full conversion to abiraterone: ≤ 30 min
[8]; [12]
  Conversion in media containing lipid degradation products: very limited
[8]; FeSSIF*-Th and FeSSIF*-E
  Degradation in media with undigested TG: slower degradation

## C[C@]12CC[C@H](O)CC1=CC[C@@H]1[C@@H]2CC[C@]2(C)C(c3cccnc3)=CC[C@@H]12 [abiraterone]
[1]
  Apparent solubility, micellar: 12.7 (±4.2) ^1 µM
[9]; FeSSIF*, micellar, pH 6.5, fessif, thermodynamic from solid
  solubility at 24 h: 32.7 µM (≈ 11.4 µg/mL)
[9]; FeSSIF*-E, micellar layer of the supernatant, pH 6.5, thermodynamic from solid, micellar layer
  solubility at 24 h: 22 µM (≈ 7.69 µg/mL)
[9]; FeSSIF*-E, total sample (micellar + lipid layer), pH 6.5, thermodynamic from solid, total sample (micellar + lipid layer), FeSSIF*-E
  solubility at 24 h: 39 µM
[9]; FeSSIF*-FM, micellar, pH 6.5, thermodynamic from solid
  solubility at 24 h: 176 µM (≈ 61.5 µg/mL)
[9]; FeSSIF*-FMT, micellar layer of the supernatant, pH 6.5, thermodynamic from solid, micellar layer
  solubility at 24 h: 161 µM (≈ 56.3 µg/mL)
[9]; FeSSIF*-FMT, total sample (micellar + lipid layer), pH 6.5, thermodynamic from solid, total sample (micellar + lipid layer), FeSSIF*-FMT
  solubility at 24 h: 199 µM
[9]; FeSSIF*-FMTh, micellar layer of the supernatant, pH 6.5, thermodynamic from solid, micellar layer
  solubility at 24 h: 158 µM (≈ 55.2 µg/mL)
[9]; FeSSIF*-FMTh, total sample (micellar + lipid layer), pH 6.5, thermodynamic from solid, total sample (micellar + lipid layer), FeSSIF*-FMTh
  solubility at 24 h: 221 µM
[9]; FeSSIF*-Th, micellar layer of the supernatant, pH 6.5, thermodynamic from solid, micellar layer
  solubility at 24 h: 31 µM (≈ 10.8 µg/mL)
[9]; FeSSIF*-Th, total sample (micellar + lipid layer), pH 6.5, thermodynamic from solid, total sample (micellar + lipid layer), FeSSIF*-Th
  solubility at 24 h: 50 µM
[10]; FaSSIF and FeSSIF*, entire course of the experiment
  Supersaturation in the perfusate: apparent supersaturation
[10]; FeSSIF*-FM, FeSSIF*-FMT, FeSSIF*-FMTh
  Supersaturation in the perfusate: No supersaturation was observed
[10]; FeSSIF*-FM, FeSSIF*-FMT, FeSSIF*-FMTh, abiraterone acetate suspension 0.5 mg/mL, 80 IU/mL esterases
  Absorptive flux in media with lipid digestion products: comparable to the flux in FaSSIF
[10]; [13]
  Abiraterone AUC0–60min in the perfusate, FeSSIF* compared to FaSSIF: much higher
  Abiraterone flux towards the mesenteric vein, FeSSIF* compared to FaSSIF: increased
  Absorptive flux in FeSSIF*-E and FeSSIF*-Th compared to FaSSIF: increased
[10]; ongoing lipolysis, pancreatin 0.83 mg/mL, abiraterone acetate suspension 0.5 mg/mL
  Absorptive flux in FeSSIF*-Ed compared to FaSSIF and FeSSIF*-FMT: substantially higher
[5]
  Increase of solubility in FeSSIF*-FM compared to FeSSIF*: 5 fold
[6]; quoted in the discussion of solubility, no reference given
  Log P: 3.97
[11]; FaSSIF, 10 μM donor, compared to Papp values of 14 compounds of ref 13
  Permeability (Papp) in FaSSIF: low permeability
[11]; FeSSIF* vs FaSSIF
  Lowering of permeability in FeSSIF* compared to FaSSIF: 2.6 fold
[11]; [12]
  Change of passive permeability with FFA and MG: significant decrease
[11]; FeSSIF*-Th and FeSSIF*-E vs FeSSIF*
  Effect of addition of TG to FeSSIF* on Papp: did not have an effect
